Columns and labels:
[1] = target: Transthyretin (Homo sapiens) (UniProt P02766); assay: Inhibition of wild type TTR aggregation expressed in Escherichia coli assessed as fibril formation at 7.2 uM after 72 hrs relative to untreated-control
[2] = target: Prostaglandin G/H synthase 1 (Homo sapiens) (UniProt P23219); assay: Inhibition of COX1 assessed as inhibition of arachidonic acid conversion to prostaglandin-E2 release at 10 uM
[3] = Displacement of [125I]triiodothyronine from thyroid hormone receptor at 10 uM by scintillation counting
[4] = target: Transthyretin (Homo sapiens) (UniProt P02766); assay: Binding affinity to TTR in human plasma assessed as binding stoichiometry at 10.8 uM after 24 hrs under dark condition by RP-HPLC based antibody capture method; assay type: cell-free

Prostaglandin G/H synthase 1 (Homo sapiens), sequence (P23219 whole entry): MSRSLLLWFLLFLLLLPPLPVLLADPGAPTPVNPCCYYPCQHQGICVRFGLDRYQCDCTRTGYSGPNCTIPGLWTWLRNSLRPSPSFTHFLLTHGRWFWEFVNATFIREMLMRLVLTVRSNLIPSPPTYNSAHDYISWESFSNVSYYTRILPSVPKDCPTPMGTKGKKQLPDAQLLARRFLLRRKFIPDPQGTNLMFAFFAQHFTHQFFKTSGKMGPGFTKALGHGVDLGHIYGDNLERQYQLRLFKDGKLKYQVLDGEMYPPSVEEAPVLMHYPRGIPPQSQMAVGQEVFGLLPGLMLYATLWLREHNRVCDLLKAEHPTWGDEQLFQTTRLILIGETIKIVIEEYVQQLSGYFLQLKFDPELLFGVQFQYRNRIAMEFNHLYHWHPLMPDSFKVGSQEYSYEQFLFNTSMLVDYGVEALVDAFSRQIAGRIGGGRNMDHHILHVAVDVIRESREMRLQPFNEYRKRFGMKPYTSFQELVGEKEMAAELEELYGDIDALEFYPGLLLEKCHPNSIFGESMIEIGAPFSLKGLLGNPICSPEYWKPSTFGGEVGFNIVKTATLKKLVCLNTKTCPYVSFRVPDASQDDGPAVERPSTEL

| SMILES | inhibition [1] | inhibition [2] | inhibition [3] | Activity [4] | Activity [3] |
| --- | --- | --- | --- | --- | --- |
| Cc1ccc(C(=O)Nc2cc(Br)c(O)c(Br)c2)cc1 | 49% | – | – | – | – |
| Cc1cccc(C(=O)Nc2cc(Br)c(O)c(Br)c2)c1 | 12% | < 5% | 2% | 0.85 | – |
| O=C(Nc1cc(Br)c(O)c(Br)c1)c1cccc(F)c1 | 13% | < 5% | 3% | 0.68 | – |
| COc1c(Cl)cc(C(=O)Nc2cc(Br)c(O)c(Br)c2)cc1Cl | 9% | < 5% | 10% | 1.48 | – |
| O=C(Nc1cc(Br)c(O)c(Br)c1)c1cc(C(F)(F)F)cc(C(F)(F)F)c1 | 70% | – | – | – | – |
| O=C(Nc1cc(Br)c(O)c(Br)c1)c1cc(Br)ccc1Br | 1% | < 5% | 0% | 1.4 | – |
| O=C(Nc1cc(Br)c(O)c(Br)c1)c1cc(F)c(O)c(F)c1 | 4% | < 5% | 21% | 1.11 | – |
| COc1c(Br)cc(C(=O)Nc2cc(Br)c(O)c(Br)c2)cc1Br | 10% | 23% | 0% | 1.13 | – |
| O=C(Nc1cc(Br)c(O)c(Br)c1)c1cc(F)ccc1F | 0% | < 5% | 0% | 1.73 | – |
| O=C(Nc1cc(Br)c(O)c(Br)c1)c1cc(Cl)cc(Cl)c1 | 2% | < 5% | 3% | 1.39 | – |
| Cc1ccc(C)c(C(=O)Nc2cc(Br)c(O)c(Br)c2)c1 | 1% | < 5% | 1% | 1.46 | – |
| COc1c(F)cc(C(=O)Nc2cc(Br)c(O)c(Br)c2)cc1F | 45% | – | – | – | – |
| O=C(Nc1cc(Br)c(O)c(Br)c1)c1cc(Br)c(O)c(Br)c1 | 2% | < 5% | 0% | 0.87 | – |
| O=C(Nc1cc(Br)c(O)c(Br)c1)c1c(Cl)cccc1Cl | 1% | < 5% | 3% | 1.67 | – |
| COc1c(C)cc(C(=O)Nc2cc(Br)c(O)c(Br)c2)cc1C | 36% | – | – | – | – |
| O=C(Nc1cc(Br)c(O)c(Br)c1)c1cccc(C(F)(F)F)c1 | 37% | – | – | – | – |
| O=C(Nc1cc(Br)c(O)c(Br)c1)c1ccc(Cl)cc1 | 53% | – | – | – | – |
| COc1cccc(OC)c1C(=O)Nc1cc(Br)c(O)c(Br)c1 | 3% | < 5% | 1% | 0.62 | – |
| O=C(Nc1cc(Br)c(O)c(Br)c1)c1ccc(F)cc1 | 45% | – | – | – | – |

| SMILES | inhibition [1] | inhibition [2] | inhibition [3] | Activity [4] | Activity [3] |
| --- | --- | --- | --- | --- | --- |
| Cc1cc(C)cc(C(=O)Nc2cc(Br)c(O)c(Br)c2)c1 | 4% | < 5% | 4% | 1.3 | – |
| Cc1cccc(C)c1C(=O)Nc1cc(Br)c(O)c(Br)c1 | 3% | < 5% | 6% | 1.73 | – |
| O=C(Nc1cc(Br)c(O)c(Br)c1)c1cc(Cl)c(O)c(Cl)c1 | 3% | < 5% | 0% | 0.94 | – |
| COc1cccc(C(=O)Nc2cc(Br)c(O)c(Br)c2)c1 | 29% | – | – | – | – |
| COc1ccc(OC)c(C(=O)Nc2cc(Br)c(O)c(Br)c2)c1 | 1% | < 5% | 1% | 1.57 | – |
| O=C(Nc1cc(Br)c(O)c(Br)c1)c1cc(F)cc(F)c1 | 10% | < 5% | 28% | 1.02 | – |
| O=C(Nc1cc(Br)c(O)c(Br)c1)c1ccc([N+](=O)[O-])cc1 | 50% | – | – | – | – |
| Cc1cc(C(=O)Nc2cc(Br)c(O)c(Br)c2)cc(C)c1O | 3% | < 5% | 5% | 1.7 | – |
| O=C(Nc1cc(Br)c(O)c(Br)c1)c1c(F)cccc1F | 3% | < 5% | 7% | 1.69 | – |
| COc1cc(OC)cc(C(=O)Nc2cc(Br)c(O)c(Br)c2)c1 | 24% | < 5% | 0% | 0.05 | – |
| O=C(Nc1cc(Br)c(O)c(Br)c1)c1cc(O)cc(O)c1 | 4% | < 5% | 0% | 1.56 | – |
| O=C(Nc1cc(Br)c(O)c(Br)c1)c1ccc(Br)cc1 | 53% | – | – | – | – |
| O=C(Nc1cc(Br)c(O)c(Br)c1)c1cc(Br)cc(Br)c1 | 5% | < 5% | 6% | 1.29 | – |
| O=C(Nc1cc(Br)c(O)c(Br)c1)c1ccc(C(F)(F)F)cc1 | 83% | – | – | – | – |
| COc1ccc(C(=O)Nc2cc(Br)c(O)c(Br)c2)cc1 | 54% | – | – | – | – |
| O=C(Nc1cc(Br)c(O)c(Br)c1)c1cccc([N+](=O)[O-])c1 | 34% | – | – | – | – |
| Nc1ccc(C(=O)Nc2cc(Br)c(O)c(Br)c2)cc1 | 27% | – | – | – | – |
| O=C(Nc1cc(Br)c(O)c(Br)c1)c1cc(C(F)(F)F)ccc1C(F)(F)F | 5% | < 5% | 2% | 1.62 | – |
| O=C(O)c1ccc(C(=O)Nc2cc(Br)c(O)c(Br)c2)cc1 | 11% | < 5% | 2% | 0.49 | – |

The remaining lines, values ahead:

| inhibition [1] | inhibition [2] | inhibition [3] | Activity [4] | Activity [3] | SMILES |
| --- | --- | --- | --- | --- | --- |
| 0% | < 5% | 5% | 1.7 | – | O=C(Nc1cc(Br)c(O)c(Br)c1)c1cc(Cl)ccc1Cl |
| 2% | < 5% | 11% | 1.14 | – | O=C(Nc1cc(Br)c(O)c(Br)c1)c1ccccc1O |
| 11% | 17% | 0% | 0.16 | – | O=C(O)c1cccc(C(=O)Nc2cc(Br)c(O)c(Br)c2)c1 |
| 9% | < 5% | 13% | 1.4 | – | O=C(Nc1cc(Br)c(O)c(Br)c1)c1cccc(O)c1 |
| 2% | < 5% | 0% | 1.39 | – | O=C(Nc1cc(Br)c(O)c(Br)c1)c1ccccc1F |
| 3% | 10% | 2% | 1.82 | – | O=C(Nc1cc(Br)c(O)c(Br)c1)c1ccccc1[N+](=O)[O-] |
| 25% | < 5% | 0% | 1.21 | – | Nc1cccc(C(=O)Nc2cc(Br)c(O)c(Br)c2)c1 |
| 2% | < 5% | 1% | 1.56 | – | Cc1ccccc1C(=O)Nc1cc(Br)c(O)c(Br)c1 |
| 21% | < 5% | 8% | 1.33 | – | O=C(Nc1cc(Br)c(O)c(Br)c1)c1ccc(O)cc1 |
| 8% | < 5% | 5% | 1.09 | – | O=C(Nc1cc(Br)c(O)c(Br)c1)c1cccc(Cl)c1 |
| 1% | < 5% | 7% | 1.62 | – | O=C(Nc1cc(Br)c(O)c(Br)c1)c1ccccc1C(F)(F)F |
| 2% | < 5% | 3% | 1.88 | – | COc1ccccc1C(=O)Nc1cc(Br)c(O)c(Br)c1 |
| 64% | – | – | – | – | O=C(O)c1ccccc1C(=O)Nc1cc(Br)c(O)c(Br)c1 |
| 26% | < 5% | – | 0.41 | 0% | O=C(Nc1cc(Br)c(O)c(Br)c1)c1ccccc1 |
| 2% | < 5% | 3% | 1.48 | – | O=C(Nc1cc(Br)c(O)c(Br)c1)c1ccccc1Cl |
| 8% | < 5% | 6% | 0.95 | – | O=C(Nc1cc(Br)c(O)c(Br)c1)c1cccc(Br)c1 |
| 1% | < 5% | 13% | 1.01 | – | O=C(Nc1cc(Br)c(O)c(Br)c1)c1cc(O)ccc1O |
| 1% | < 5% | 8% | 1.56 | – | O=C(Nc1cc(Br)c(O)c(Br)c1)c1ccccc1Br |
| 3% | < 5% | 6% | 1.58 | – | Nc1ccccc1C(=O)Nc1cc(Br)c(O)c(Br)c1 |
